Read-outs that look alike come from different tables or passages of the source.
Legend:
[1] = Pharmacokinetic study of six aconitum alkaloids in rat plasma after oral Fu Zi extracts (UPLC-MS/MS); type: in vivo, Sprague Dawley rats; details: SD rat plasma, mean ± SD, n = 8; for Cmax / Tmax / AUC(0-t) / CL/F / Vd/F / half-life: both sexes, Sprague Dawley, in vivo; for AUC(0-t): read-out: AUC(0–48h); for CL/F: read-out: CLz/F (converted); for Vd/F: read-out: Vz/F; for half-life: read-out: t1/2z (converted)
Description: Fu Zi (200 g) was taken and broken by a pulverizer to the size of 0.5–1.0 cm. The broken Fu Zi was soaked in 1.6 L distilled water and boiled for 0.5 h. The filtrate was collected and the previous step was repeated for the filtered residue. The mixed filtrates were precipitated with 60% ethanol, and then centrifuged (2000× g, 10 min). The supernatant was decompressed and concentrated to a final density of 2.0 g/mL by the amount of the crude drugs. The final concentration of ethanol in Fu Zi extracts before administration was below 0.5%. The extract was subsequently kept at −20 °C for oral administration to rats.
All samples were analyzed on UPLC® I-Class and Xevo® TQS mass spectrometry combined system. Separations by a Waters ACQUITY UPLC® HSS T3(2.1 mm × 100 mm, 1.8 μm) column were conducted with a mobile phase of water (A) and acetonitrile (B), both containing 0.1% formic acid, at the flow rate of 0.3 mL·min^−1.The run time was 5.0 min and the gradient elution program was adopted as follows: 0–0.3 min, 10% B; 0.3–1 min, 10–50% B; 1–2.5 min, 50–90% B; 2.5–3 min, 90% B; 3–5 min, 10% B. The temperature of the column and samples were set at 45 °C and 10 °C, respectively. The volume of injection was 2 μL.
The detection was quantified by a triple quadrupole mass spectrometer that was set as multiple reactive monitoring (MRM) in the electrospray positive ionization mode (ESI+). The correlative parameters were as follows: capillary voltage: 3 kV; desolvation gas flow: 800 L·h^−1; cone gas flow: 150 L·h^−1; source temperature: 150 °C; desolvation temperature: 500 °C.
The method of […] was utilized. An amount of 100 μL of plasma samples from rats after oral administration of Fu Zi extracts was precipitated with 300 μL of 50% acetonitrile plus 50% methanol, vortexed for 1.0 min and centrifuged at a speed of 12,000× g at 4 °C for 10 min. The supernatant was transferred to another 1.5 mL centrifuge tube, dried with a stream of nitrogen at 40 °C, redissolved in 50 μL methanol and centrifuged at 12,000× g for 10 min. Then, the supernatant was pipetted out into the autosampler vials and analyzed by UPLC-MS/MS system.
24 Sprague Dawley rats (half male and female, weight 180–220 g) were purchased from Beijing Weitong Lihua Biotechnology Co.Ltd. (Beijing, China). The license number of experimental animal production was SCXK (Jing) 2016–0006. The animals were maintained under a standard laboratory condition (humidity: 40–70%, room temperature: 20–26 °C, […], 12 h dark-light cycle) and fed separately. All animal experiments were conducted according to the Guide for the Care and Use of Laboratory Animals (National Research Council of the USA, 1996) and approved by the Institutional Animal Care and Use Committee (IACUC-DWZX-2020-776). After 5 days of acclimation, the rats were fasted for 12 h but provided with water freely before the experiments. The rats were randomly divided into 3 groups: high (2.0 g/kg), middle (1.0 g/kg), and low (0.5 g/kg) dose groups. The Fu Zi extracts was administered to each rat intragastrically. An equivalent of 0.20 mL blood samples were collected from the fossa orbitalis vein into 1.5 mL heparinized centrifuge tubes at the designated time points after dosing: 0.08, 0.25, 0.5, 1, 2, 4, 8, 12, 24, and 48 h. The plasma samples were pipetted out into another 1.5 mL centrifuge tubes after being centrifuged at 5000× g for 10 min and then stored at −20 °C until further analysis.
The data were acquired by […] from Waters (UNIFI). Microsoft Office Excel and the SPSS software (Version 13.0) was used for data analysis. The data below the LLOQ were regarded as zero in summary statistics. The pharmacokinetic parameters were calculated by DAS pharmacokinetic program (Version 2.0) and all analyzed by non-compartmental method. […] All data were presented as mean ± SD. […]

CYP3A4 = details: in vivo; cited from earlier work

Structure (SMILES) | Cmax ([1]; oral Fu Zi extracts 0.5 g/kg) [ng/mL] | Tmax ([1]; oral Fu Zi extracts 0.5 g/kg) [h] | AUC(0-t) ([1]; oral Fu Zi extracts 0.5 g/kg) [ng·h/mL] | CL/F ([1]; oral Fu Zi extracts 0.5 g/kg) [mL/min/kg] | Vd/F ([1]; oral Fu Zi extracts 0.5 g/kg) [L/kg] | half-life ([1]; oral Fu Zi extracts 0.5 g/kg) [h] | Cmax ([1]; oral Fu Zi extracts 1.0 g/kg) [ng/mL] | Tmax ([1]; oral Fu Zi extracts 1.0 g/kg) [h] | AUC(0-t) ([1]; oral Fu Zi extracts 1.0 g/kg) [ng·h/mL] | CL/F ([1]; oral Fu Zi extracts 1.0 g/kg) [mL/min/kg] | Vd/F ([1]; oral Fu Zi extracts 1.0 g/kg) [L/kg] | half-life ([1]; oral Fu Zi extracts 1.0 g/kg) [h] | Cmax ([1]; oral Fu Zi extracts 2.0 g/kg) [ng/mL] | Tmax ([1]; oral Fu Zi extracts 2.0 g/kg) [h] | AUC(0-t) ([1]; oral Fu Zi extracts 2.0 g/kg) [ng·h/mL] | CL/F ([1]; oral Fu Zi extracts 2.0 g/kg) [mL/min/kg] | Vd/F ([1]; oral Fu Zi extracts 2.0 g/kg) [L/kg] | half-life ([1]; oral Fu Zi extracts 2.0 g/kg) [h] | t1/2z ([1]; oral Fu Zi extracts 1.0 g/kg) [h] | main CYP 450 subtype for alkaloid metabolism (CYP3A4)
CCN1CC2(COC)C(O)CC(OC)C34C5CC6(O)C(OC)C(O)C(O)(C5C6OC(=O)c5ccccc5)C(C(OC)C23)C14 (stereo not shown) [BAC, benzoylaconine] | 1.52 ± 0.71 | 3.72 ± 3.6 | 16.2 ± 5.43 | 460 | 194 ± 117 | 4.48 ± 0.64 | 3.24 ± 2.01 | 5.71 ± 5.07 | 38.5 ± 15.4 | 271 | 152 ± 97.1 | 5.91 ± 3.79 | 5.91 ± 2.25 | 0.34 ± 0.2 | 50.5 ± 19.4 | 583 | 801 ± 396 | 13.7 ± 4.26 | – | –
COC[C@@]12CC[C@H](OC)[C@]34C(C([C@H](OC)[C@H]13)[C@]1(OC(C)=O)[C@H]3[C@@H](OC(=O)c5ccccc5)[C@](O)(C[C@H]34)[C@@H](OC)[C@@H]1O)N(C)C2 [HA, hypaconitine] | 6.37 ± 1.96 | 2.14 ± 0.9 | 62.9 ± 26.9 | 67 | 12.8 ± 6.88 | 1.83 ± 0.64 | 9.22 ± 1.78 | 3.88 ± 2.03 | 115 ± 25 | 59.5 | 45.3 ± 26.3 | – | 12.5 ± 4.42 | 1.6 ± 1.47 | 186 ± 64.7 | 79.7 | 80.4 ± 35.5 | 11.9 ± 4.59 | 8.72 ± 3.40 | CYP3A4

From paper PMC9268243, “Metabolic Behaviors of Aconitum Alkaloids in Different Concentrations of Aconiti Lateralis Radix Praeparata and Effects of Aconitine in Healthy Human and Long QT Syndrome Cardiomyocytes” (Molecules, 2022)
